pIC50: −log10 of the molar value.
Tests used:
human V2 receptor = biological target: T1, human V2 receptor (Homo sapiens, UniProt P30518); assay: Cellular in vitro assay for vasopressin receptor activity (aequorin luminescence), hV2; assay type: cell-based; details: CHO cell line transfected with the human V2 receptor and Gα16, agonist [Arg8]-vasopressin
T1 construct: Galpha16 (possible fusion partner; the text says either independent or a fusion gene); expressed in transfected cells; host or cells: CHO K1 (constitutively expressing modified aequorin, co-transfected with Gα16)
T1 sequence (P30518 whole entry, the tested form may be a part): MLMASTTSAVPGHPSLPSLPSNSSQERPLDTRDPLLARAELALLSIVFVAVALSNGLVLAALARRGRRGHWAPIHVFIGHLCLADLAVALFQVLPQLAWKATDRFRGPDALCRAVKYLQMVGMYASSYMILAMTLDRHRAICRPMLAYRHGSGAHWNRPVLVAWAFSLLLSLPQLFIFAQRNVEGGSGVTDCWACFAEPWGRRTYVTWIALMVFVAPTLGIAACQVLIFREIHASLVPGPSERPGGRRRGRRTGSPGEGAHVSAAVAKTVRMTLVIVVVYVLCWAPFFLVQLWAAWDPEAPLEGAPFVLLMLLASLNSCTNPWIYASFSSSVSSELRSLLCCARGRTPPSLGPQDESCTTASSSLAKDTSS
Source text: (§1) B-1. Cellular In Vitro Assay for Determining the Vasopressin Receptor Activity
(§2) The identification of agonists and antagonists of the V1a and V2 vasopressin receptors from humans and rats and also the quantification of the activity of the substances described here took place using recombinant cell lines. These cells derive originally from a hamster ovary epithelial cell (Chinese Hamster Ovary, CHO K1, ATCC: American Type Culture Collection, Manassas, Va. 20108, USA). The test cell lines constitutively express a modified form of the calcium-sensitive photoprotein aequorin, which, after reconstitution with the cofactor coelenterazine, emits light when there are increases in the free calcium concentration (Rizzuto R., Simpson A. W., Brini M., Pozzan T.; Nature 358 (1992) 325-327). In addition, the cells are stably transfected with the human or rat V1a or V2 receptors. In the case of the Gs-coupling V2 receptors, the cells are stably transfected with a further gene, which codes for the promiscuous Gα16 protein (Amatruda T. T., Steele D. A., Slepak V. Z., Simon M. I., Proc. Nat. Acad. Sci. USA 88 (1991), 5587-5591), either independently or as a fusion gene. The resulting vasopressin receptor test cells react to stimulation of the recombinantly expressed vasopressin receptors by intracellular release of calcium ions, which can be quantified by the resulting aequorin luminescence using a suitable luminometer (Milligan G., Marshall F., Rees S., Trends in Pharmaco. Sci. 17 (1996) 235-237).
(§3) Test procedure: On the day before the assay, the cells are plated out in culture medium (DMEM, 10% FCS, 2 mM glutamine, 10 mM HEPES) in 384-well microtiter plates and kept in a cell incubator (96% humidity, 5% v/v carbon dioxide, 37° C.). On the day of the assay, the culture medium is replaced by a Tyrode solution (140 mM sodium chloride, 5 mM potassium chloride, 1 mM magnesium chloride, 2 mM calcium chloride, 20 mM glucose, 20 mM HEPES), which additionally contains the cofactor coelenterazine (50 μM), and the microtiter plate is then incubated for a further 3-4 hours. The test substances in various concentrations are placed for 10 to 20 minutes in the wells of the microtiter plate before the agonist [Arg8]-vasopressin is added, and the resulting light signal is measured immediately in the luminometer. The IC50 values are calculated using the GraphPad PRISM computer program (Version 3.02).
(§4) The table below lists representative IC50 values for the compounds of the invention on the cell line transfected with the human V1a or V2 receptor: […]

human V1a receptor = biological target: T2, human V1a receptor (Homo sapiens, UniProt P37288); assay: Cellular in vitro assay for vasopressin receptor activity (aequorin luminescence), hV1a; assay type: cell-based; details: CHO cell line transfected with the human V1a receptor, agonist [Arg8]-vasopressin
T2 construct: expressed in transfected cells; host or cells: CHO K1 (constitutively expressing modified aequorin)
T2 sequence (P37288 whole entry): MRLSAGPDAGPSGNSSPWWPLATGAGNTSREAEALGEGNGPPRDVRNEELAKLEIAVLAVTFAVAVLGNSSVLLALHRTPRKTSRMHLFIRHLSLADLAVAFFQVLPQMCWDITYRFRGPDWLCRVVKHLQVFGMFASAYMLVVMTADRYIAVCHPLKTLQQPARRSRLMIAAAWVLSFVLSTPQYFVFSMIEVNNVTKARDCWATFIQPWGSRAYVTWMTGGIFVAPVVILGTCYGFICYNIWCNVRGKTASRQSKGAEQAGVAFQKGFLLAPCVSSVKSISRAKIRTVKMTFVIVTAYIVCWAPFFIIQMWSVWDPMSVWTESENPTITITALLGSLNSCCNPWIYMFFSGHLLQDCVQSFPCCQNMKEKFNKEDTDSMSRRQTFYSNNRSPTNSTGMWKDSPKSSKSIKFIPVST
Source text: as §1, §2, §3, §4

| pIC50 (human V2 receptor) | pIC50 (human V1a receptor) | SMILES |
| --- | --- | --- |
| 7.04 | 7.49 | COc1cccc(C(NC(=O)Cn2nc(-c3ccc(Cl)cc3)n(C[C@H](O)C(F)(F)F)c2=O)c2cccc(C(F)(F)F)c2)n1 (single isomer, unassigned) [Example 18] |
| 8.15 | 8.34 | COc1cccc(C(NC(=O)Cn2nc(-c3ccc(Cl)cc3)n(C[C@H](O)C(F)(F)F)c2=O)c2cccc(C(F)(F)F)c2)n1 (single isomer, unassigned) [Example 19] |
| 8.49 | 8.19 | Cc1noc([C@](C)(NC(=O)Cn2nc(-c3ccc(Cl)cc3)n(C[C@H](O)C(F)(F)F)c2=O)c2cccc(C(F)(F)F)c2)n1 [Example 3, 2-{3-(4-Chlorophenyl)-5-oxo-4-[(2S)-3,3,3-trifluoro-2-hydroxypropyl]-4,5-dihydro-1H-1,2,4-triazol-1-yl}-N-{(1R)-1-(3-methyl-1,2,4-oxadiazol-5-yl)-1-[3-(trifluoro-methyl)phenyl]ethyl}acetamide] |
| 8.48 | 8.08 | C[C@@](NC(=O)Cn1nc(-c2ccc(Cl)cc2)n(C[C@H](O)C(F)(F)F)c1=O)(c1cccc(C(F)(F)F)c1)c1nnn[nH]1 [Example 4, 2-{3-(4-Chlorophenyl)-5-oxo-4-[(2S)-3,3,3-trifluoro-2-hydroxypropyl]-4,5-dihydro-1H-1,2,4-triazol-1-yl}-N-{(1R)-1-(1H-tetrazol-5-yl)-1-[3-(trifluoromethyl)phenyl]ethyl}acetamide] |
